Patent publication US20100203001A1, “PROCESS FOR FORMING DISULFIDE BRIDGES” (APLAGEN GMBH, priority 2007, published 2010)
“Also recorded” adds a separate entry of the source. Where two headings read alike, the source gives them in different places.

Assays:
[1] = tests of the capacity to promote the formation of disulfide bridges; format: biochemical
Experimental: The tests were carried out as described previously (see above). The substance tested and the amounts tested are stated in each case.

BB57 = assay: cyclization (oxidation) of EPO mimetic peptide BB57 to BB57C in air in water, monitored by HPLC or Ellman's test; format: biochemical
human hair = assay: oxidation of reduced human hair by heterocyclic compound with metal ions, thiol groups by Ellman's reagent
Experimental: To this end, for each measuring point the disulfide bridges of 5 mg hair were first reduced using ammonium thioglycolate/ammonium thiolactate (commercially available formulations for permanent waves) in order to open them. Subsequently, the reduction solution is removed and the hair was washed with water several times. Then, the hair was subjected to the different oxidation mixtures in order to again close the disulfide bridges. After filtrating these solutions, the amount of thiol groups was determined using the Ellman's reagent. Thereby, a statement on the speed and efficiency of the oxidation step and thus the renewed closure of the disulfide bridges can be made.
In several experiments combinations of different metal additives in place of higher amounts of a single salt component are also used. The amounts in the mixture “artificial tap water” described below are based on the maximum values of the regulation for tap water of the FRG, wherein the following combination of metal ions was used: 0.2 mg/L iron ([…], 5 mg/L zinc (Zn^2+), 2 mg/L copper (Cu^2+) and some hardening components 100 mg/L calcium (Ca^2+) and 50 mg/L magnesium (Mg^2+).

EPO mimetic peptide = assay: cyclization of an EPO mimetic peptide that can only be cyclized with great difficulty; format: biochemical; details: 10 mg/ml caffeine
Experimental: Some of the EPO mimetic peptides can only be cyclized with great difficulty. An example is the following peptide:
The yield after approx. 21 h in solution was already >90%.

hair = assay: oxidation of hair reduced with ammonium thioglycolate Wave-Lotion, free thiol groups by Ellman's reagent (412 nm); details: air, room temperature, 3 days
Experimental: The solution is removed and the hair is then washed 6 times with 400 μl H2O each time.
For determination of the free thiol groups still remaining, after removing the reaction solution the hair is reacted with fEllman's reagent (5,5′-dithiobis(2-nitrobenzoic acid), DTNB). […] The hair samples are put in 200 μl each of 100 mM phosphate buffer, pH 8.0 and 1 mM EDTA, and 300 μl of a 1 mM DTNB solution in the same EDTA-containing buffer. The solution is analyzed after a few minutes in a UV-Vis spectrometer.

oxytocin, reduced (OxyR) = oxytocin, reduced (OxyR) (Homo sapiens, UniProt P01178); assay: cyclization of reduced oxytocin-derived peptide (OxyR) to oxytocin (Oxy) in air, HPLC; format: biochemical; details: GSSG optionally added with caffeine
Experimental: The reaction mixture was analyzed by HPLC at regular intervals, in order to determine the contents of OxyR and the product oxytocin (Oxy).

[2] = in combination with artificial tap water salt mixture
[3] = single agent in water (10 mg/ml caffeine or 5 mg/ml GSSG)

O=c1ccc(=O)[nH][nH]1 [1,2-dihydro-3,6-pyridazinedione]
capacity to promote the formation of disulfide bridges [1]: active

Cn1ccc(=O)[nH]c1=O [1-methyl-uracil]
capacity to promote the formation of disulfide bridges [1]: good activity

Nc1ccnc(N)n1 [2,4-diaminopyrimidine]
capacity to promote the formation of disulfide bridges [1]: do not have the capacity to promote the formation of disulfide bridges

Cc1cc(O)nc(O)n1 [2,4-dihydroxy-6-methylpyrimidine]
capacity to promote the formation of disulfide bridges [1]: active

Cc1cc(O)nc(C)n1 [2,4-dimethyl-6-hydroxypyrimidine]
capacity to promote the formation of disulfide bridges [1]: active

Cc1cc(O)nc(C(C)C)n1 [2-isopropyl-6-methyl-4-pyrimidinol]
capacity to promote the formation of disulfide bridges [1]: active

Cc1nc(O)cc(O)n1 [4,6-dihydroxy-2-methylpyrimidine]
capacity to promote the formation of disulfide bridges [1]: active

Oc1cc(O)ncn1 [4,6-dihydroxy-pyrimidine]
capacity to promote the formation of disulfide bridges [1]: active

O=C(O)CN(CCN(CC(=O)O)CC(=O)O)CC(=O)O [EDTA, ethylenediaminetetraacetic acid]
effect of complexing agent on the strong effect of the iron ions (BB57; alloxan plus iron ions (3 μM) with two equivalents EDTA): slightly weakened

O=C1NC(=O)C(=O)C(=O)N1 [alloxan, alloxan monohydrate]
effect of iron(III) ions on oxidation (BB57): accelerating effect
reaction time (BB57): less than an hour
time until almost completely cyclised (BB57): about 2 h
reverse oxidation of the thiols in hair (human hair; 0.1% alloxan solution with low amounts of iron(III) ions, after 10 minutes): almost complete reverse oxidation
advantage due to the addition of salt (human hair; alloxan with iron(III) chloride or artificial tap water, control after 10 minutes): small advantage
oxidation of reduced hair (human hair; [2]): completely oxidize the hair
capacity to promote the formation of disulfide bridges [1]: Active

Nc1cnccn1 [aminopyrazine]
capacity to promote the formation of disulfide bridges [1]: do not have the capacity to promote the formation of disulfide bridges

O=C1CC(=O)NC(=O)N1 [barbituric acid]
capacity to promote the formation of disulfide bridges [1]: Active

Cn1c(=O)c2c(ncn2C)n(C)c1=O [caffeine]
reaction time until complete conversion (BB57): about 10 h
time of cyclisation (BB57): about an hour; also recorded: shortened
time until complete conversion (BB57): about 15 h
time until conversion is quantitative (BB57): ten
time until oxidation is completed (BB57): approx. 24 h
time until cyclization successful (EPO mimetic peptide): ≤ 24 h
oxidation of the thiol groups of reduced hair (hair; combination 10 mg/ml caffeine and 5 mg/ml GSSG): almost quantitative oxidation of the thiol groups
oxidation of the thiol groups of reduced hair (hair; [3]): partial oxidation of the thiol groups
strength as catalysator on hair (human hair; comparison with alloxan): weaker compared to alloxan
duration of the reaction compared with alloxan (human hair; [2]): takes longer
oxidation of reduced hair (human hair; [2]): completely oxidize the hair

O=S(=O)([O-])[O-].[Fe+2] [iron(II) sulfate]
accelerating effect on the cyclisation of BB57 (BB57): no activity

Nc1nc(N)nc(N)n1 [melamine]
capacity to promote the formation of disulfide bridges [1]: do not have the capacity to promote the formation of disulfide bridges

Nc1cc(N2CCCCC2)nc(N)[n+]1[O-] [minoxidil, 6-(1-piperidinyl)-2,4-pyrimidinediamine-3-oxide]
time until oxidation is completed (BB57; 0.7 mg BB57 and 0.3 mg substance in 1 ml distilled water, in the air, HPLC): approx. 29 h

NC(=O)c1cnccn1 [pyrazine amide]
capacity to promote the formation of disulfide bridges [1]: do not have the capacity to promote the formation of disulfide bridges

O=C(O)c1cnccn1 [pyrazine-carboxylic acid]
capacity to promote the formation of disulfide bridges [1]: do not have the capacity to promote the formation of disulfide bridges

O=C(O)c1cc(O)nc(O)n1 [uracil-6-carboxylic acid]
capacity to promote the formation of disulfide bridges [1]: active

O=C1NC(=O)C(=NO)C(=O)N1 [violuric acid]
capacity to promote the formation of disulfide bridges [1]: Active

glutathione in oxidized form [GSSG]
conversion of the peptide (BB57): only takes place slowly
influence on rate or yield (oxytocin, reduced (OxyR)): no influence on rate or yield
oxidation of the thiol groups of reduced hair (hair; [3]): partial oxidation of the thiol groups

potassium hexacyanoferrate
effect of stable metal ion complex on cyclisation by alloxan (BB57; alloxan plus potassium hexacyanoferrate(II) or (III) (30 μM), Ellman's reagent): accelerating effect
